Experimental data published in US10172864B2, “Therapeutically active compounds and their methods of use” (AGIOS PHARMACEUTICALS, INC, priority 2013, dated 2019).

Target: IDH1 wt/IDH1 R132H heterodimer (Homo sapiens (Human), UniProt O75874, R132H)
Assay: IDH1 wt/IDH1 R132H heterodimer enzymatic assay, NADPH depletion with diaphorase/resazurin readout
Assay type: biochemical
Conditions: 300 μM NADP (saturated)
Procedure: The following describes the experimental procedures that can be used to obtain data on columns 2 and 4 of Table 4 and column 2 of Table 5.
In the primary reaction, the reduction of α-KG acid to 2-HG is accompanied by a concomitant oxidation of NADPH to NADP. The amount of NADPH remaining at the end of the reaction time is measured in a secondary diaphorase/resazurin reaction in which the NADPH is consumed in a 1:1 molar ratio with the conversion of resazurin to the highly fluorescent resorufin.
The mixture of compound, enzyme, and cofactor is pre-incubated at room temperature for 1 hr prior to the addition of alpha-ketoglutarate. To perform the secondary reaction, 10 uL of 1× buffer containing 36 μg/ml diaphorase and […] resazurin is added to the primary reaction and incubated for a further 5 minutes at 25° C. […] Compounds or compound dilutions are prepared in 100% DMSO concentration and diluted 1:50 into the final reaction. […] IC50s are determined.
IDH1 or IDH2 wildtype (wt) and mutant heterodimers are expressed and purified by methods known in the art. […] Host cell contaminants are removed by washing the column with equilibration buffer followed by equilibration buffer containing 20 mM imidazole and 60 mM imidazole to baseline. […]

Sequence of IDH1 wt/IDH1 R132H heterodimer (O75874 whole entry R132H): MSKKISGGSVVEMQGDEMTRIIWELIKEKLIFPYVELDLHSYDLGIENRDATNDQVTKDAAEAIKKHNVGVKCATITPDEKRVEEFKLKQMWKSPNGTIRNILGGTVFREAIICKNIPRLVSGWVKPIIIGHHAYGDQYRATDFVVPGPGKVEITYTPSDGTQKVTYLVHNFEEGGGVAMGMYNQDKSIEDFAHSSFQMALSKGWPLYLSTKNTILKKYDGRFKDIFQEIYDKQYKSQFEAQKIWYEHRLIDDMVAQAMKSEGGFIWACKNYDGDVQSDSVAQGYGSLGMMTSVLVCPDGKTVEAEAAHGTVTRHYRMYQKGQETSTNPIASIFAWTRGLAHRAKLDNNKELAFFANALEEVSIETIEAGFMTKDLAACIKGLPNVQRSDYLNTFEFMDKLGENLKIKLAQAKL
Sequence of IDH1 wt/IDH1 R132H heterodimer (O75874 whole entry, stated change not applied): as the sequence (O75874 whole entry R132H) above, with H132R counted along it

IC50: 50 to 100 nM
Compound: FC1(F)CCC(Nc2nc(NC3CCC(F)(F)CC3)nc(-c3nc(C(F)(F)F)cs3)n2)CC1 [Compound 357]
